# Results published in patent publication US8778876B2, “Small-molecule inhibitors of Dengue and West Nile virus proteases” (The Board of Regents of the University of Texas System, priority 2011, dated 2014).
# Entries after “also recorded” stand apart in the source; their conditions may differ. Like-named read-outs stand apart in the source and are kept apart here.
# What was measured:
# [1] = target: T1, Bovine pancreatic trypsin (Bos taurus, UniProt P00760); experiment: biochemical; type: biochemical
# T1 construct: purchased Sigma Aldrich; host or cells: bovine pancreas
# T1 sequence (P00760 24-246): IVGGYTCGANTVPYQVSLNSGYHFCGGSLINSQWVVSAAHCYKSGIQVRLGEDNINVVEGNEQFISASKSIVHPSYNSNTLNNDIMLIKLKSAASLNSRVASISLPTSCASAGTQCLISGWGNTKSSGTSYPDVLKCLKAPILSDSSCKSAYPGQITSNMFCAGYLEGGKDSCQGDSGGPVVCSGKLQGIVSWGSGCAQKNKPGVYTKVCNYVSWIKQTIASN
# physchem = details: pH 9, aqueous with cosolvent or surfactant or cyclodextrin, kinetic from dmso stock
# [2] = pH 9
# DEN2V NS2B-NS3pro [3] = target: T2, DEN2V NS2B-NS3pro (Dengue virus type 2, UniProt Q91H74); experiment: Preliminary DEN2V NS2B-NS3pro inhibition assay; type: biochemical, Dengue 2 virus; details: 100 nM protease, 100 μM Boc-GRR-AMC, 30 min at 25° C.; aprotinin at 100 μM
# T2 sequence (Q91H74 entry or part of it, added parts left off): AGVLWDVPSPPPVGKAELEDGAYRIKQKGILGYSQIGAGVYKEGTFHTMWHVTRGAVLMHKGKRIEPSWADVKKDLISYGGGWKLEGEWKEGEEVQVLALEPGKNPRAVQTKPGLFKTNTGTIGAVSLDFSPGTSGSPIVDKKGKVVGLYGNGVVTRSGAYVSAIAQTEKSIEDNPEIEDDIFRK
# T2 sequence (Q91H74 entry or part of it partner, added parts left off): as the sequence (Q91H74 entry or part of it, added parts left off) above
# WNV NS2B-NS3pro = WNV NS2B-NS3pro (West Nile virus, UniProt P06935); experiment: Steady-state kinetics of inhibitors of WNV NS2B-NS3pro; type: biochemical
# Chain of WNV NS2B-NS3pro (P06935 1502-1679 limits assumed): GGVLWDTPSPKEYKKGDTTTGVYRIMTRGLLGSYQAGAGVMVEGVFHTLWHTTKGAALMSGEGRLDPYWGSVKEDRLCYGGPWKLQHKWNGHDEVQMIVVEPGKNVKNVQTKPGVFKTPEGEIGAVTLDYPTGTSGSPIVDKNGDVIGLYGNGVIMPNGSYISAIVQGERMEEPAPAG
# Chain of WNV NS2B-NS3pro (P06935 1424-1463 partner limits assumed): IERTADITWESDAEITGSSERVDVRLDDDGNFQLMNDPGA
# DENV; WNV protease = type: biochemical, Dengue virus; West Nile virus
# DEN2V NS2B-NS3pro [4] = target: T2, DEN2V NS2B-NS3pro; experiment: Steady-state kinetics of inhibitors of DEN2V NS2B-NS3pro (Boc-GRR-AMC substrate, Dynafit); type: biochemical, Dengue 2 virus
# [5] = Ki1 (from biochemical protease inihibition experiments) West Nile virus NS2B-NS
smiles,measurement,setting,value
"N=C(N)c1ccccc1 [Benzamidine, reference compound]",Mechanism (trypsin inhibition),[1],competitive trypsin inhibitors
O=[N+]([O-])c1ccc(OP(=O)([O-])Oc2ccc([N+](=O)[O-])cc2)cc1.[Na+] [Compound 6A24],solubility,physchem,< 10 µM
Nc1cccc2c1C(=O)c1ccccc1C2=O [Compound 6A25],solubility,physchem,< 10 µM
Nc1ccc2c(c1)C(=O)c1ccccc1C2=O [Compound 6A27],solubility,physchem,< 10 µM
Cc1ccc2c(c1)C(=O)c1ccccc1C2=O [Compound 6A28],solubility,physchem,< 10 µM
O=c1[nH]c2cc([N+](=O)[O-])c([N+](=O)[O-])cc2[nH]c1=O [Compound 6A29],solubility,physchem,< 10 µM
O=C1c2cccc(O)c2C(=O)c2cccc(O)c21 [Compound 6A30],solubility,physchem,< 10 µM
O=P(=O)c1ccc(OC2OCC(O)C(O)C2O)cc1 (centres unmarked) [Compound 6A31],solubility,[2],NS (key: compounds soluble in aqueous buffer were indicated with “S”; insoluble compounds indicated with “NS.”)
Nc1ccc2c(c1[N+](=O)[O-])C(=O)c1ccccc1C2=O [Compound 6A35],solubility,physchem,< 10 µM
O=[N+]([O-])c1cc([N+](=O)[O-])c2ccccc2c1[O-].[Na+] [Compound 6A40],solubility,physchem,< 10 µM
Cc1cccc2c1C(=O)c1cccc([N+](=O)[O-])c1C2=O [Compound 6A41],solubility,physchem,< 10 µM
Nc1ccc(N)c2c1C(=O)c1c(N)ccc(N)c1C2=O [Compound 6A42],Inhibition of DEN2V NS2B-NS3pro in the preliminary inhibition assay,DEN2V NS2B-NS3pro [3],significant inhibition
same,Mechanism (trypsin inhibition),[1],mixed noncompetitive trypsin inhibitors; also recorded: inhibited both the DEN2V NS2B-NS3 protease and trypsin
same,Ki,[1]; Ki1 trypsin,60 ± 13 µM
same,Ki,[1]; Ki2 trypsin,167 ± 20 µM
O=C1c2c(O)cccc2Cc2cccc(O)c21 [Compound 6A45],Inhibition of DEN2V NS2B-NS3pro in the preliminary inhibition assay,DEN2V NS2B-NS3pro [3],significant inhibition
same,solubility,physchem,> 10 µM
same,Ki,WNV NS2B-NS3pro; [5],2 µM
same,Mechanism (trypsin inhibition),[1],competitive trypsin inhibitors; also recorded: inhibited both the DEN2V NS2B-NS3 protease and trypsin
same,Ki,[1]; Ki1 trypsin,0.6 ± 0.07 µM
COc1ccc(N)c2c1C(=O)c1ccccc1C2=O [Compound 6A46],solubility,physchem,> 10 µM
O=C1c2ccc(O)cc2C(=O)c2c1ccc(O)c2O [Compound 6A47],Inhibition of DEN2V NS2B-NS3pro in the preliminary inhibition assay,DEN2V NS2B-NS3pro [3],significant inhibition
same,solubility,physchem,> 10 µM
same,Mechanism (trypsin inhibition),[1],mixed noncompetitive trypsin inhibitors; also recorded: inhibited both the DEN2V NS2B-NS3 protease and trypsin
same,Ki,[1]; Ki1 trypsin,4 µM
same,Ki,[1]; read-out: Ki2 trypsin,25 ± 3 µM
CN/N=C1/c2ccccc2C(=O)c2c(O)ccc(O)c21 [Compound 6A48],solubility,physchem,> 10 µM
O=[N+]([O-])c1ccc(N=Nc2ccc(O)c3ccccc23)c([N+](=O)[O-])c1 [Compound 6A49],Inhibition of DEN2V NS2B-NS3pro in the preliminary inhibition assay,DEN2V NS2B-NS3pro [3],significant inhibition
same,Protease inhibited in Knock-down,DENV; WNV protease,DENV; WNV
same,solubility,physchem,> 10 µM
same,Ki,WNV NS2B-NS3pro; [5],34 µM
same,Ki,WNV NS2B-NS3pro; WNpro Ki1,34 µM
same,Mechanism (trypsin inhibition),[1],did not inhibit trypsin; also recorded: No inhibition
O=Cc1ccc2c(c1)C(=O)c1ccccc1C2=O [Compound 6A50],solubility,physchem,> 10 µM
Nc1ccc(O)c2ccccc12 [Compound 6A51],solubility,physchem,> 10 µM
Nc1c(Br)cc(O)c2c1C(=O)c1ccccc1C2=O [Compound 6A53],solubility,physchem,< 10 µM
Oc1ccc2cc3ccc(O)cc3c(O)c2c1 [Compound 6A60],solubility,physchem,> 10 µM
same,Ki,"DEN2V NS2B-NS3pro [4]; DEN2V NS2B-NS3 Ki1, second series analogs",7 ± 5 µM
same,Ki,"DEN2V NS2B-NS3pro [4]; DEN2V NS2B-NS3 Ki2, second series analogs",3 ± 1 µM
same,Ki,DEN2V NS2B-NS3pro [4]; Ki1 (from biochemical protease inihibition experiments) Dengue 2 virus NS2B-NS3,7 µM
same,DEN2V NS2B-NS3 Ki1,DEN2V NS2B-NS3pro [4]; second series analogs,lowest Ki1 of all anthracene-based analogs
same,DEN2V NS2B-NS3 Mechanism,DEN2V NS2B-NS3pro [4]; second series analogs,Mixed
same,Ki,WNV NS2B-NS3pro; [5],11 µM
same,Trypsin Mechanism,[1],did not inhibit trypsin cleavage activity; also recorded: No inhibition
